PubChem BioAssay AID1648 (Sanford-Burnham Center for Chemical Genomics, 2009)
The source made the active and inactive calls. No rule for the calls is given here.

Molecular target: Serine/threonine-protein kinase mTOR (Homo sapiens) (UniProt P42345)
Assay: mTOR FRB domain ligand binding – biophysical, NMR (AID 1648)
Details: NMR binding to FRB domain, chemical shift

Chain of Serine/threonine-protein kinase mTOR (Homo sapiens) (P42345 2015-2114): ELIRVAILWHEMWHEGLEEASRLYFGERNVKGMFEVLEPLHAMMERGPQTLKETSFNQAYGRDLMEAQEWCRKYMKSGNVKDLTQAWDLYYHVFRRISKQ

SMILES	Kd
CC(C)CC(=O)NC1CCSC1=O (stereo not drawn)	> 4 mM (inactive)
O=C(NN=C1CCCC1)c1ccncc1	> 4 mM (inactive)
CN(Cc1nc2ccccc2n1C)C(=O)c1cccs1	> 4 mM (inactive)
O=C(O)CCCc1nc2ccccc2s1	> 4 mM (inactive)
COc1ccc(C(=O)/C=C/c2ccccc2)cc1	> 4 mM (inactive)
COC(=O)[C@@H]1OC(=O)C2OC23[C@@]1(C)CCC1[C@]2(C)C(C[C@H](O)[C@]13C)C(C)(C)[C@H](OC(C)=O)C[C@@H]2OC(C)=O (stereo partly drawn)	> 4 mM (inactive)
CCOc1cccc(C(=O)c2ccc(O)c(O)c2O)c1	> 4 mM (inactive)
COc1cc2c(c(OC)c1OC)-c1ccc(OC)c(=O)cc1[C@@H](NC(C)=O)CC2	> 4 mM (inactive)
CCN1C(=O)N(CO)C2C1N(C)C(=O)N2C (stereo not drawn)	> 4 mM (inactive)
NC(=O)Cn1cnc2ccccc21	> 4 mM (inactive)
CC(=O)n1nc(-c2cccnc2)nc1N	> 4 mM (inactive)
COc1ccc(C)cc1S(=O)(=O)N1CCCCC1	> 4 mM (inactive)
CC(=O)c1cccc(NC(=O)NN2CCOCC2)c1	> 4 mM (inactive)
O=C(Nn1cnnc1)c1cc2c(s1)CCCC2	> 4 mM (inactive)
COc1ccc2c(c1)[n+](=O)c(C(C)=O)c(C)n2[O-]	> 4 mM (inactive)
C[C@@H]1CC[C@@]23CCC4(C)[C@@](C=CC5[C@@]6(C)CC[C@H](O)C(C)(C)C6CC[C@]54C)(OC2=O)C3[C@H]1C (stereo partly drawn)	> 4 mM (inactive)
CN(C)N1C(=O)C2CCCCC2C1=O (stereo not drawn)	> 4 mM (inactive)
CC(=O)Nc1c(C)n(C)n(-c2ccccc2)c1=O	> 4 mM (inactive)
N#Cc1nc(N2CCCCC2)nc(N2CCOCC2)n1	> 4 mM (inactive)
Cc1ccc(-n2nnnc2SCC(N)=O)c(C)c1	> 4 mM (inactive)
CCc1noc(C)c1C(=O)N1CCCC1	> 4 mM (inactive)
O=C(O)CC1C(=O)NCCN1Cc1cccs1 (stereo not drawn)	> 4 mM (inactive)
C=C1CSc2nc(=O)c3c(C)c(C)sc3n21	> 4 mM (inactive)
NC1=C(c2ccccc2)C(=O)c2ccccc21	> 4 mM (inactive)

SMILES	Kd
NCc1ccc(-c2csnn2)cc1	> 4 mM (inactive)
CC(=O)CS(=O)(=O)c1ccccc1	> 4 mM (inactive)
CC(=O)NC(=S)Nc1ccccc1C(N)=O	> 4 mM (inactive)
c1ccc(-c2nc3ccccc3nc2-c2ccccn2)nc1	> 4 mM (inactive)
COC(=O)CSc1n[nH]c(N)n1	> 4 mM (inactive)
COc1ccc(C)cc1S(=O)(=O)NC1CCCC1	> 4 mM (inactive)
O=c1n(-c2ccccc2)c(=O)n2n1CCCC2	> 4 mM (inactive)
CCOC(=O)C(C)c1n[nH]c(=O)c2ccccc12 (stereo not drawn)	> 4 mM (inactive)
O=C(NCc1ccco1)c1ccc(Br)s1	> 4 mM (inactive)
OCC1=Cc2ccccc2OC1	> 4 mM (inactive)
CC(=O)c1cccc(NS(=O)(=O)N(C)C)c1	> 4 mM (inactive)
C=C1C(=O)O[C@@H]2C3OC3(C)CC/C=C(\C)CC[C@@H]12 (stereo partly drawn)	> 4 mM (inactive)
CCOC(=O)C1CCN(Cc2ccccc2)CC1	> 4 mM (inactive)
O=C(O)c1cccc2nsnc12	> 4 mM (inactive)
Cc1ccccc1CSc1nnc(C)n1N	> 4 mM (inactive)
Cc1noc(C)c1C(=O)NCc1cccs1	> 4 mM (inactive)
CN1CCN(c2cc(=O)n(C)c(=O)[nH]2)CC1	> 4 mM (inactive)
COc1ccc2c(c1)OC/C(=C/c1ccc(O)c(O)c1)C2=O	> 4 mM (inactive)
O=C(O)c1ccc(Nc2nncc(=O)[nH]2)cc1	> 4 mM (inactive)
Cc1ccnc(NS(=O)(=O)c2ccccc2)n1	> 4 mM (inactive)
O=C(NCO)c1ccccc1Cl	> 4 mM (inactive)
Cc1sc2nc(C)n(NC(N)=O)c(=O)c2c1C	> 4 mM (inactive)
Nc1ncnc2c1ncn2CCN1CCCCC1	> 4 mM (inactive)
CN1C(=O)CC[C@H]1c1cccnc1	> 4 mM (inactive)
